According to patent publication US11931374B2, “Adenosine receptor modulators for the treatment of circadian rhythm disorders” (OXFORD UNIVERSITY INNOVATION LIMITED, priority 2016, dated 2024):
Entries after “also recorded” stand apart in the source; their conditions may differ.

Tests used:
Per2 = Per2 mRNA within the SCN after intraperitoneal injection; assay type: in vivo, mice; conditions: 4 h after intraperitoneal injection
Text: SCN Tissue Collection: Animals were housed under a 12:12 LD cycle for 2 weeks with food and water ad libitum. Animals then received either a drug injection with a alteration in the light dark cycle as described in the experiment and at set points following drug administration were sacrificed by cervical dislocation. Sham-treated mice not given a light pulse were dissected at each time point. Brains were removed and placed into a brain matrix (Kent Scientific, Torrington CT, USA). Per2::Luc transgenic animals (as reported in Yoo et al, Proc Natl Acad Sci USA. 2004 Apr. 13; 101(15):5339-46) were obtained from Prof Joseph Takahashi, Northwestern University. […]
Total RNA was extracted using the microRNeasy column method (Qiagen, Hilden, Germany). Quality and quantity of RNA were measured using an Agilent Bioanalyzer and a Nanodrop1000 (Thermo Fisher Scientific, Waltham, MA USA), respectively.
RNA samples were prepared as described for microarray hybridisation. cDNA was synthesized with a qScript cDNA synthesis kit (Quanta Biosciences, Gaithersburg, MD), and quantitative PCR (qPCR) was conducted with Sybr green I and an SDS7700 thermal cycler (Applied Biosystems, Foster City, CA). Relative quantification of transcript levels was done as described previously (Peirson et al., Nucleic Acids Res. 2003 Jul. 15; 31(14):e73.). […]

C57Bl/6 mice [1] = test: Re-entrainment in a jet-lag protocol; assay type: in vivo
Protocol: (§1) Animals were housed under a reversed 12:12 LD cycle (400 lux from white LED lamps) with food and water ad libitum. For phase-shifting studies, C57Bl/6 mice were maintained on running wheels in light tight chambers on a 12:12 LD cycle (400 lux from white LED lamps) and injected with drug at the indicated time points. The drugs were formulated in a vehicle consisting of 5% Koliphor-HS15 (Sigma-Aldrich, UK) 5% Cyclodextran (Sigma-Aldrich, UK) in 0.9% saline. This vehicle was warmed to 37° C. and the indicated drugs kept at a 100× stock in DMSO and mixed at the appropriate concentration to be administered at approximately 300 ul intraperitoneal injection (n=6 to 10). Where the time point of injection was in the dark, the procedure was conducted under dim red light. Where measuring phase-shifting, the mice were then placed in DD and allowed to free run for 14 days in DD, running wheel activity data was collected and analysed on Clocklab (Actimetrics, Wilmette, IL). […]
Re-entrainment: C57B/6 male mice (80 days or older) were maintained on running wheels in light tight chambers on a 12:12 LD cycle (100 lux from white LED lamps) and injected with drugs as above at ZT6. […] Onset of activity on each day was used to measure phase relative to the LD cycle, data analysed on Clocklab.

C57Bl/6 mice [2] = test: Phase shifting of circadian activity by drug (running wheel); assay type: in vivo
Protocol: Animals were housed under a reversed 12:12 LD cycle (400 lux from white LED lamps) with food and water ad libitum. For phase-shifting studies, C57Bl/6 mice were maintained on running wheels in light tight chambers on a 12:12 LD cycle (400 lux from white LED lamps) and injected with drug at the indicated time points. The drugs were formulated in a vehicle consisting of 5% Koliphor-HS15 (Sigma-Aldrich, UK) 5% Cyclodextran (Sigma-Aldrich, UK) in 0.9% saline. This vehicle was warmed to 37° C. and the indicated drugs kept at a 100× stock in DMSO and mixed at the appropriate concentration to be administered at approximately 300 ul intraperitoneal injection (n=6 to 10). Where the time point of injection was in the dark, the procedure was conducted under dim red light. Where measuring phase-shifting, the mice were then placed in DD and allowed to free run for 14 days in DD, running wheel activity data was collected and analysed on Clocklab (Actimetrics, Wilmette, IL). For jet-lag studies, mice were maintained on running wheels in light tight chambers on a 12:12 LD cycle (400 lux from white LED lamps) and injected with drugs as above at ZT6 and the LD cycle was shifted 6 hours in advance. The onset of activity on each day was used to measure phase relative to the LD cycle.
Phase Shifting: C57Bl/6 male mice (80 days or older) were maintained on running wheels in light tight chambers on a 12:12 LD cycle (100 lux from white LED lamps) on stable entrainment, were released in complete darkness. At set times as indicated in the experiments, the animals received an intraperitoneal injection (300 ul) of drug constituted in sterile saline with 5% Cyclodextrin (Sigma-Aldrich) and 5% Koliphor (Sigma-Aldrich) and then allowed to free run in DD, running wheel activity data were collected and analysed on Clocklab (Actimetrics, Wilmette, IL).

CREB = CREB phosphorylation in U2OS cells; assay type: cell-based
[3] = tested on: intracellular levels of cAMP; test: cAMP GloSensor assay in U2OS cells; assay type: cell-based
Protocol: The GloSensor™ cAMP Assay (Promega) was used for detecting changes in the intracellular levels of cAMP. Initially, a Greiner Bio-One 96 Well Plate (white, TC treated) was seeded at 8000 cells per 100 μl well, as described above. After 24 hours, the cells were transfected with the pGloSensor™ cAMP Plasmid using the Viafect transfection reagent as above. Between 24 and 48 hours later, allowing for the accumulation of the biosensor, the medium in the 96 well plate was changed to C02-Independent Medium supplemented with GlutaMAX™ (Life Technologies), 10% fetal bovine serum and 2% GloSensor™ cAMP Reagent. The plate was then stood for 2 hours at room temperature to equilibrate. Following the incubation period, the cells were treated with relevant drugs and their luminescence values were measured after 20 minutes in the BMG FLUOstar OPTIMA Microplate Reader, with forskolin as a positive control, and DMSO as a negative control.

C57Bl/6 mice [4] = test: Phase shifting of circadian activity in response to a light pulse with drug; assay type: in vivo; conditions: light at CT16
Protocol: Animals were maintained in a 12 h light (white) 12 h dark (grey) cycle and vehicle was administered just before a 30 min 400 lux light pulse (white bar) at time CT 22 (or 10 hours after lights off). All light cues were then removed to allow the animals free running clock to express. A gap in the lines on the day after the light pulse was administered indicates a phase shift.
Animals were maintained in a 12 h light (white) 12 h dark (grey) cycle and IB-MECA (1 mg/kg) was administered just before a 30 min 400 lux light pulse (white bar) at time CT 22 (or 10 hours after lights off).
as §1, with “This vehicle was warmed to 37° C. and the indicated drugs kept at a 100× stock in DMSO and mixed at the appropriate concentration to be administered at approximately 300 ul intraperitoneal injection (n=6 to 10). Where the time point of injection was in the dark, the procedure was conducted under dim red light.” left out

Nc1nc(-c2ccccc2)c2c(n1)-c1cc(OCCN3CCOCC3)ccc1C2=O [JNJ40255293, 2-amino-8-[2-(4-morpholinyl)ethoxy]-4-phenyl-5H-indeno[1,2-d]pyrimidin-5-one]
Per2 mRNA levels within the SCN (Per2): increase | re-entrainment (advance of activity onset) (C57Bl/6 mice [1]; 5 mg/kg single intraperitoneal injection at ZT6, LD cycle advanced 6 h): shifted rapidly; also recorded: advanced entrainment more potently than Tasimelteon, KW6002 (specific A2A antagonist) or KW3902 (specific A1 antagonist) | re-entrainment, dose response (C57Bl/6 mice [1]; jet-lag protocol, LD cycle advanced 6 h): dose responsively enhanced re-entrainment | phase shift of circadian activity (C57Bl/6 mice [2]; 5 mg/kg intraperitoneal, 6 h after the onset of light (ZT6), then constant dark): induced a phase advance | phase shift of circadian activity (C57Bl/6 mice [2]; 5 mg/kg, administered at CT16, constant dark): resulted in a phase delay | phase shifts compared with other agents (FIG. 9A) (C57Bl/6 mice [2]; difference between onset pre and post injection): causes the largest phase shifts | CREB phosphorylation (CREB): no changes in CREB phosphorylation | cAMP levels [3]: does not elevate cAMP levels | increase in cAMP ([3]; 30 uM): 50% | phase-shifts in response to light (C57Bl/6 mice [4]): enhances phase-shifts in response to light at CT16
